Drawing on PubChem BioAssay (NCI), this text covers TGI and GI50 for two compounds.

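Exposure lasted 48 hours, with cells grown in 96-well plates and compounds tested at five concentrations. GI50 marks 50% less growth. TGI denotes the concentration required for complete inhibition of growth.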

Among the test systems are 786-0 renal; HL-60(TB) leukemia; K-562 leukemia; NCI-H23 lung; NCI-H522 lung; OVCAR-5 ovarian; SF-268 CNS; SF-539 CNS; SK-MEL-28 melanoma; SK-OV-3 ovarian.
What all share (assay): inhibition of tumour cell growth, NCI panel, 48 h

Take `Cc1nc(N)c(-c2ccccc2)s1`: the TGI with 786-0 renal was greater than 100 µM; in the test with HL-60(TB) leukemia it was greater than 72.9 µM; with K-562 leukemia, greater than 100 µM; in the test on NCI-H23 lung it was greater than 100 µM; in the test on NCI-H522 lung it was greater than 100 µM; with OVCAR-5 ovarian, greater than 100 µM. Besides, the TGI in the test with SF-268 CNS, with SF-539 CNS, in the test on SK-MEL-28 melanoma and in the test with SK-OV-3 ovarian was greater than 100 µM in each case.
On to `COc1ccc(C(=O)O[C@H]2[C@H](O[C@H]3[C@@H](O)COC(O[C@H]4C[C@H]5[C@@H]6CC=C7C[C@@H](O)CC[C@]7(C)[C@H]6CC[C@]5(C)[C@H]4[C@H](C)C(=O)CCC(C)C)[C@@H]3OC(C)=O)OC[C@@H](O)[C@@H]2O)c(C)c1` (stereo not given in full), for which the GI50 with 786-0 renal is less than 0.01 µM; in the test with HL-60(TB) leukemia it was 0.0133 µM; with K-562 leukemia, less than 0.01 µM; in the test with NCI-H23 lung, 0.0574 µM; in the test with NCI-H522 lung it was 0.0114 µM; in the test with OVCAR-5 ovarian, 0.103 µM. In addition, the GI50 in the test with SF-268 CNS was less than 0.01 µM; in the test on SF-539 CNS, less than 0.01 µM; in the test on SK-MEL-28 melanoma, less than 0.01 µM; in the test with SK-OV-3 ovarian, 0.0246 µM. Also, the TGI with 786-0 renal is 7.38 µM; in the test with HL-60(TB) leukemia it was 28.2 µM; with K-562 leukemia, 13.9 µM; in the test with NCI-H23 lung, 15.4 µM; in the test with NCI-H522 lung, 0.607 µM; with OVCAR-5 ovarian it was 26.9 µM. The TGI was 3.4 µM with SF-268 CNS, less than 0.01 µM with SF-539 CNS, less than 0.01 µM in the test on SK-MEL-28 melanoma and 9.5 µM with SK-OV-3 ovarian.
